Measurements: ChEMBL document CHEMBL5120868, “Tuaimenal A, a Meroterpene from the Irish Deep-Sea Soft Coral Duva florida, Displays Inhibition of the SARS-CoV-2 3CLpro Enzyme” (J Nat Prod, 2022)

Columns and labels:
[1] = biological target: Replicase polyprotein 1ab (Severe acute respiratory syndrome coronavirus 2) (UniProt P0DTD1); experiment: Inhibition of recombinant SARS-CoV-2 3CLpro expressed in Escherichia coli BL21 at 20 uM using LGSAVLQ-rhodamine 110-dp as fluorogenic substrate preincubated for 15 mins followed by substrate addition by spectrophotometry analysis relative to control
[2] = biological target: Replicase polyprotein 1ab (Severe acute respiratory syndrome coronavirus 2, UniProt P0DTD1); experiment: Inhibition of recombinant SARS-CoV-2 3CLpro expressed in Escherichia coli BL21 using LGSAVLQ-rhodamine 110-dp as fluorogenic substrate preincubated for 15 mins followed by substrate addition by spectrophotometry analysis
[3] = biological target: Replicase polyprotein 1ab (Severe acute respiratory syndrome coronavirus 2) (UniProt P0DTD1); experiment: Inhibition of recombinant SARS-CoV-2 3CLpro expressed in Escherichia coli BL21 at […] using LGSAVLQ-rhodamine 110-dp as fluorogenic substrate preincubated for 15 mins followed by substrate addition by spectrophotometry analysis relative to control

Structure (SMILES)	inhibition [1]	IC50 [2]	inhibition [3]
CC(C)=CCC/C(C)=C/CC[C@]1(C)C=Cc2c(C=O)c(O)c(C)c(O)c2O1	40%	21 µM	
NCCc1ccc(S(=O)(=O)F)cc1			100%
